Measurements reported in patent publication US12390483B2, “Compounds and methods for treating neurological and cardiovascular conditions” (Astrocyte Pharmaceuticals, Inc., priority 2016, dated 2025).
Entries after “also recorded” stand apart in the source; their conditions may differ.

What was measured:
[1] = tested on: photothrombosis-induced stroke infarctions; experiment: Photothrombosis-induced stroke in mice, TTC-stained brain infarction size; format: in vivo; conditions: for size of the brain infarction (TTC staining): 24 hours after stroke, versus vehicle; for size of brain infarctions in mice pretreated with the A3 receptor antagonist MRS1523: MRS1523 2 mg/kg i.p. at 0 and 2 hours, treatment within 30 minutes of clot formation, 24 hours
Procedure: Photothrombosis-induced Stroke: Photothrombosis was performed as described in Zheng et al 2010 (PloS One 5 (12): e14401). In brief, Rose Bengal is a fluorescent dye that when injected into the vasculature and excited, generates singlet oxygen that damages the endothelial wall and induces a local thrombosis (clot). Using this technique, mice were given a 0.1 mL tail-vein injection of sterilized Rose Bengal (RB, Sigma, U.S.A.) in artificial cerebral spinal fluid (aCSF). The RB concentration was 20 mg/mL. A cortical region was centered in the imaging field and illuminated with a green laser (543 nm, 5 mW) using a 0.8-NA 40× water-immersion objective (Nikon, Tokyo). The clot formation was monitored in real time until the targeted vessel or downstream capillaries were firmly occluded. Stable clots were subsequently identified by a non-fluorescent vessel segmentation ending with highly fluorescent regions. […] Treatments, MRS4322 (0.16 mg/kg; 0.5 μmol/kg) or MRS2365 (0.24 mg/kg; 0.5 μmol/kg) were introduced via intraperitoneal injections (i.p.). […] Animals and Photothrombosis-induced Stroke: Stroke was performed as described in Zheng et al 2010 (PloS One 5 (12): e14401). Female C57Bl/6 mice (4-6 months) were used in this study. From the methods of this manuscript: Mice were anesthetized at 3% isoflurane with 100% oxygen and subsequently maintained at 1% isoflurane through a nosecone. Depth of anesthesia was monitored and regulated according to vital signs, pinch withdrawal and eye blinks. Body temperature was maintained at 37° C. by a feedback-controlled heating pad (Gaymar T/Pump). Vital signs including oxygen saturation, respiratory rate, and heart rate were continuously monitored by using the MouseOx system (STARR Life Sciences). The hair on each mouse's head was trimmed and a small incision was made in the scalp to expose the skull. A custom-made stainless steel plate was glued to the skull with VetBond Tissue Adhesive (3M, St Paul, MN). A cranial thinned-skull imaging window was created over the right primary somatosensory cortex (˜1.5 mm posterior to Bregma and 2 mm lateral from midline) depending on the experiment. In brief, a large region of the skull was first thinned with the electric drill and then further thinned with a surgical blade. The final thickness of the thinned skull was approximately 50 μm. After the cranial imaging window was created, mice were transferred to microscope stage and used for photothrombosis or imaging experiments. For the repeat imaging experiments, the plate was carefully detached from the skull and the scalp was sutured (Ethicon 6-0 sild suture). After each experiment, the mice were either returned to cages until the next timepoint or sacrificed. All procedures were approved by the Institutional Animal Care and Use Committee (IACUC) at University of Texas Health Science Center at San Antonio. Thirty minutes following stroke or sham (uninjured), mice were treated with either vehicle (saline) or drugs (MRS4322, MRS2365, MRS5698 or Cl-IBMECA). Post photothrombotic infarction evaluation. The size of cerebral infarcts was evaluated using 2,3,5-Triphenyltetrazolium chloride (TTC) staining as described in Zheng et al 2010 (PloS One 5 (12): e14401). In brief, RB-induced lesions in brain slices were stained with TTC. TTC is a colorless dye that stains healthy brain tissue red when reduced by the mitochondrial enzyme succinyl dehydrogenase (Bederson J B et al., 1986). The absence of staining in necrotic tissue is then used to define the area of a brain infarction. Mice were sacrificed by cervical dislocation, their brains removed and then placed in ice cold HBSS for 3 minutes. […] The sections were fixed in 10% buffered formaldehyde solution overnight at 4° C. Slices were imaged on a flatbed scanner (HP scanjet 8300) for analysis of the lesion size at 1200 dpi. Photothrombosis-induced Stroke: Photothrombosis was performed as described in Zheng et al. 2010 (PloS One 5 (12): e14401). […]

[2] = tested on: GFAP expression; experiment: Traumatic brain injury (TBI) in mice, Western blot analysis for GFAP; format: in vivo; conditions: for GFAP expression in brain (Western blot, GFAP/actin): 7 days post-injury, versus untreated TBI
Procedure: Animals and traumatic brain injury (TBI): TBI was performed with a controlled closed skull injury model as described in […] al. 2012 (J. Neurotrauma 30, 55-66). Following the method described therein, a pneumatic impact device was used to generate a moderate TBI leaving the skull and dura matter intact. To achieve this, C57BL/6 mice were anesthetized with isoflurane (3% induction, 1% maintenance) in 100% oxygen. A body temperature of 37° C. was maintained using a temperature-controlled heated surgical table. A small midline incision was made on the scalp using aseptic surgical techniques. A 5 mm stainless steel disc was positioned on the skull and fixed using superglue on the right parietal bone between bregma and lamda over the somatosensory cortex. The mouse was then positioned on a stage directly under the pneumatic impact tip. […] Scalp incisions were closed using 4-0 nylon braided suture and antibiotic ointment applied to the incision. Mice were placed in a Thermo-Intensive Care Unit (Braintree Scientific model FV-1; 37° C.; 27% 02) and monitored until fully awake and moving freely. […] Western Blot Analysis for GFAP: At selected survival times, mice were anesthetized under isoflurane and sacrificed. The brain was removed and placed on ice for dissection into impacted and non-impacted brain hemispheres. […] The homogenate was transferred to a 2 mL tube and centrifuged at 1000 g for 10 minutes at 4° C. and the supernatant was collected and analyzed. Protein concentration was determined by the BCA assay using a 1:50 dilution. 100 μg of protein was removed as an aliquot for each sample and Laemmli buffer containing β-mercaptoethanol added and the sample placed in a heat block for 3 minutes at 95° C. Samples were loaded on a 12% gel and ran at 80 V for 20 minutes followed by 40 minutes at 130 V. Samples were transferred to nitrocellulose membrane at 100 V for 1 hour. The membrane was blocked with 5% milk in TBS-T for 30 minutes. GFAP (1:1000-Imgenex IMG-5083-A) was added and placed at 4° C. overnight. The membrane was washed with TBS-T three times for 10 minutes. Secondary antibody for GFAP (Donkey anti-rabbit HRP conjugated (ImmunoJackson Laboratories; 711-035-152; 1:20000) was applied at room temperature for 1 hour. The membranes were washed with TBS-T for 15 minutes (3 times) and developed using the Western Lightning Plus-ECL kit (PerkinElmer, Inc.) following manufacturer's directions.

[3] = Example 6: mice, 0.5 μmol/kg i.p. within 30 minutes of clot formation
[4] = TBI mice, approx. 0.5 μmol/kg 30 min post-TBI

SMILES	size of the brain infarction (TTC staining) [1, 3]	size of brain infarctions in mice pretreated with the A3 receptor antagonist MRS1523 [1]	GFAP expression in brain (Western blot, GFAP/actin) [2, 4]	size of the brain infarction (TTC staining) ([1]; Example 7: mice, 100 ul of 100 uM i.p. within 30 minutes of clot formation)	efficacy in the mouse photothrombotic stroke model ([1]; summary statement)	GFAP levels in plasma (Western blot, relative to actin) ([2]; TBI mice, approx. 0.5 μmol/kg 30 min post-TBI, day 7, versus untreated TBI)	efficacy in the mouse TBI model ([2]; summary statement)
CSc1nc(N)c2ncn([C@H]3[C@H](O)[C@H](O)[C@]4(COP(=O)(O)OP(=O)(O)O)C[C@H]34)c2n1 [MRS2365]	significantly reduced	not reduced	significantly lower; also recorded: decreased	–	–	–	–
CSc1nc(N)c2ncn([C@H]3[C@H](O)[C@H](O)[C@]4(CO)C[C@H]34)c2n1 [MRS4322]	significantly reduced	reversed by MRS1523; also recorded: not reduced	significantly lower; also recorded: decreased	significantly reduced	significant efficacy	significantly reduced	significant efficacy
